Laboratory results: ChEMBL document CHEMBL1201862, “PubChem BioAssay data set” (2004)
Several values for one entry are separate records, joined by “and”; a condition that tells them apart may be missing. Identical values can stand only once.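 These data come from cells grown in 96-well plates and exposed to compound for 48 hours at five concentrations. GI50: concentration for 50% inhibition of growth.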 Activity calls are given as the source filed them. Cut-off read from the data, not from the text of the source: active = GI50 up to about 1.1 µM and inactive = higher.

Tests used:
Test in all cases: DTP human tumour cell line panel, 48 h
[1] = test system: SK-MEL-2
[2] = test system: 786-0
[3] = test system: SK-OV-3
[4] = test system: HL-60
[5] = test system: UO-31
[6] = test system: EKVX
[7] = test system: UACC-257
[8] = test system: SK-MEL-5
[9] = test system: MOLT-4
[10] = test system: IGROV-1
[11] = test system: NCI-H23
[12] = test system: HOP-92
[13] = test system: NCI-H226
[14] = test system: SF-539
[15] = test system: LOX IMVI
[16] = test system: PC-3
[17] = test system: UACC-62
[18] = test system: MCF7
[19] = test system: A498

Measured: GI50

O=C(O)Cc1cc(=O)[nH]c2c1/C(=N/O)CCC2
inactive: [1] > 100 µM | [2] > 100 µM | [3] > 100 µM | [4] > 100 µM | [5] > 100 µM | [6] > 100 µM | [7] > 100 µM | [8] > 100 µM | [9] > 100 µM | [10] > 100 µM | [11] > 100 µM | [12] > 100 µM | [13] > 100 µM | [14] > 100 µM

Cc1cc(C)c(S(=O)(=O)N(CCCN)OCCCN)c(C)c1
inactive: [15] > 100 µM | [1] > 100 µM | [3] > 100 µM | [16] > 100 µM | [17] > 100 µM | [5] > 100 µM | [6] > 100 µM | [7] > 100 µM | [8] > 100 µM | [9] > 100 µM | [10] > 100 µM | [11] > 100 µM | [12] 64.1 µM | [18] > 100 µM | [13] > 100 µM | [14] > 100 µM

COc1ccc(-c2nc(SC)n(C3OC(COC(C)=O)C(OC(C)=O)C(OC(C)=O)C3OC(C)=O)c(=O)c2C#N)cc1 (centres undefined)
inactive: [15] 56.4 µM | [1] > 100 µM and 73.3 µM | [2] 64.3 µM | [16] > 100 µM | [4] > 100 µM | [5] 27 µM and 25.6 µM | [6] > 100 µM | [7] > 100 µM | [8] > 100 µM | [9] 68.4 µM | [10] > 100 µM | [18] > 100 µM | [13] > 100 µM

O=c1c2ccc(S(=O)(=O)c3ccc4c(=O)n5c6ccccc6nc5c5cccc3c45)c3cccc(c32)c2nc3ccccc3n12
inactive: [15] > 100 µM | [1] 21.3 µM | [2] 29.5 µM | [3] 5.26 µM | [16] > 100 µM | [17] 45.5 µM | [5] 39.9 µM | [6] 43.9 µM | [7] > 100 µM | [8] > 100 µM | [10] 1.98 µM | [11] 96.6 µM | [18] > 100 µM | [13] 41.6 µM | [14] 28.7 µM

C=C1CCC([N+](=O)[O-])[C@](C)(N=O)CC[C@@H]2C1CC2(C)C (some centres undefined)
inactive: [15] 16.1 µM | [1] > 10 µM | [2] 20.6 µM | [3] 57.7 µM | [16] 26.4 µM | [17] > 10 µM | [4] 5.43 µM | [5] 16.3 µM | [6] 19 µM | [7] 23 µM | [8] 15.3 µM | [9] 20.5 µM | [10] 24.4 µM | [11] 17.2 µM | [12] 19.9 µM | [18] 16.6 µM | [13] 16 µM

N#C/C(=C\c1ccc(F)cc1)c1nc(-c2cc3ccccc3oc2=O)cs1
inactive: [15] 87.7 µM | [1] 30.3 µM | [2] 14.8 µM | [3] 20.4 µM | [16] 31.7 µM | [17] 15 µM | [4] > 100 µM | [5] 26.9 µM | [6] 30.8 µM | [7] 20.7 µM | [8] 15.3 µM | [9] > 100 µM | [10] 22.6 µM | [12] 10.3 µM | [18] 37.8 µM | [13] 28.7 µM | [14] 18 µM

CN(C)c1ccc(C(N)=O)cn1
inactive: [15] > 100 µM | [1] > 100 µM | [2] > 100 µM | [16] > 100 µM | [17] > 100 µM | [4] > 100 µM | [5] > 100 µM | [6] > 100 µM | [7] > 100 µM | [8] > 100 µM | [9] > 100 µM | [10] > 100 µM | [11] > 100 µM | [18] > 100 µM | [14] > 100 µM

COc1ccc(/C(C)=N/NC(=S)N(C)C)c(O)c1
inactive: [15] 2.42 µM | [1] 14.4 µM | [3] 3.84 µM | [16] 6.4 µM | [17] 4.35 µM | [5] 5.65 µM | [6] 5.41 µM | [7] 20.9 µM | [8] 12.1 µM | [9] 4.57 µM | [10] 4.31 µM | [11] 8.11 µM | [12] 29.5 µM | [13] 4.09 µM

Nc1ncnc2c1ncn2C1OC(CO)C(O)C1N (centres undefined)
inactive: [15] > 100 µM | [1] > 100 µM | [2] > 100 µM | [3] > 100 µM | [16] > 100 µM | [17] > 100 µM | [4] > 100 µM | [5] > 100 µM | [6] > 100 µM | [7] > 100 µM | [19] > 100 µM | [8] > 100 µM | [9] > 100 µM | [10] > 100 µM | [11] > 100 µM | [12] > 100 µM | [13] > 100 µM | [14] > 100 µM
